We go through 4 molecules from US9023793B2, “Intranasal carbetocin formulations and methods for the treatment of autism” (Retrophin, Inc., priority 2006, dated 2015).

The nature of data set [1]: clinical. The note with it: human, in vivo; for AUC(0-t) / Tmax: inhaled or intranasal.
Experimental: In this human clinical study (cross-over, dose escalating), the intranasal (IN) formulation of carbetocin was administered (a single dose) to 12 healthy human subjects (18-65 years old) at three strengths (150, 300, and 500 μg per dose) and compared to the 50 μg dose of Duratocin® administered by intramuscular injection (IM). Blood samples were taken periodically between t=0 (predose) and 6 hrs after dosing.
For data set [2] the following is noted: human, in vivo, inhaled or intranasal, 150 ug.
Experimental: (§2) In this second clinical trial, three concentrations of carbetocin were manufactured based on the formulation disclosed in Table 38 in order to provide a carbetocin dose of 150 μg, 250 μg, and 400 μg. Blood samples for PK analysis of carbetocin and oxytocin levels were collected in EDTA coated blood collection tubes from patients. Aprotinin was immediately added and the samples were centrifuged to obtain plasma samples. Intranasal (IN) formulation of carbetocin were dosed using a 100 μl actuator in 12 healthy, human subjects at three strengths (1.5, 2.5, and 4.0 mg/ml) and compared to intramuscular (IM) dose of Duratocin® (Carbetocin Injection). An additional comparison to the commercially available version of intranasal oxytocin (Syntocinon Spray®) was also conducted. Blood samples were taken periodically between t=0 (predose) and 6 hrs.
Data set [3] in a line: clinical. To be noted: human, in vivo; for Cmax / Tmax / AUC(0-t): inhaled or intranasal.
Experimental: as §2
The conditions of data set [4]: in vivo; cited from earlier work.
The next data set in a line: in vivo. To be noted: rabbit, inhaled or intranasal, 60 ug.
The test system of data set [5] is tracheal/bronchial epithelial cell membrane inserts (EpiAirway). Put plainly: Transepithelial electrical resistance (TER). The format is cell-based. The note with it: Rabbit Pharmacokinetic Study 3 formulations. Here is the method:
Tracheal/bronchial epithelial cell membrane inserts (EpiAirway, MatTek Corp., Ashland, Mass.) were received the day before the experiment. Each tissue insert was placed in a well of a 6 well plate which contained 0.9 ml of serum free media and cultured at 37° C. for 24 hours to allow the tissues to equilibrate. The day of the experiment, transepithelial electrical resistance measurements were taken for each insert using a Tissue Resistance Measurement Chamber connected to an Epithelial Voltohmeter (World Precision Instruments, Inc., Sarasota, Fla.).
(§1) 200 μl of fresh media was gently added to each tissue insert in the 24 well plate and the plate was placed no a shaker table at room temperature for 5 minutes. 150 μl of apical solution was removed from each insert and reserved for a […] dehydrogenase assay. The inserts were then washed with 300 μl of media; 300 μl of new media was added to each insert, the inserts were incubated for 20 minutes at room temperature and the transepithelial electrical resistance was measured.

Data set [6] has the same test system. Put plainly: Cell viability, MTT assay. Format: cell-based. To be noted: Rabbit Pharmacokinetic Study 3 formulations. As for the experimental part: Cell viability was assessed using an MTT assay kit (MatTek Corp., Ashland, Mass.). MTT concentrate was thawed and diluted with media at a ratio of 2 ml MTT:8 ml media. 300 μl MTT-media mix was added to each well of a 24 well plate. Tissue culture inserts were drained and transferred to the MTT containing well and incubated at 37° C. in the dark for three hours. After incubation, each insert was removed from the plate, and then immersed in the wells of a fresh 24-well plate containing 2 ml extractant solution. The plate was then covered and incubated overnight at room temperature in the dark. The liquid in each insert was then decanted back into the well from which it was taken and the insert was discarded. 50 μl of the exractant solution from each well was then pipetted in triplicate into a 96 well plate and diluted with the addition of 150 μl of fresh extractant solution. The optical density of the samples was then measured at 550 nm on a Spectramax plate reader (Molecular Devices, Sunnyvale, Calif.) using SpectraPro software.
Background: Formazan colour is commonly taken as a measure of viable cells.

The test system is the same in data set [7]. Put plainly: Cytotoxicity, LDH assay (apical and basolateral). To be noted: Rabbit Pharmacokinetic Study 3 formulations. The format is cell-based. As for the experimental part:
as §1
The inserts are then transferred into a new 24 well plate containing no media and the appropriate amount of media was added to the apical surface in order to total 300 μl. The inserts were then shaken for five minutes at 100 RPM at room temperature. 50-100 μl of the apical media were then removed, placed in […] and kept at 2-8° C. until needed.
The samples were then centrifuged at 1000 rpm for 5 minutes. 2 μl of the supernatant was removed and added to a 96 well plate. 48 μl of media was then used to dilute the supernatant to make a 25× dilution and each sample was assayed in triplicate for LDH loss using a CytoTox 96 Cytotoixcity Assay Kit (Promega Corp., Madison, Wis.).
For analysis of the basolateral media, 50 μl of the reserved 150 μl solution was loaded into a 96 well assay plate and assayed in triplicate.

The next data set concerns rats. As to the kind of experiment: Anxiolytic effect, elevated plus-maze assay. Format: in vivo. As for the experimental part:
The anxiolytic effect of carbetocin and oxytocin was tested using the elevated plus-maze assay in rats as described in Holmes, A., et al., Behav. Neurosci. 115(5):1129-44, 2001. See also Sahuque, L., et al., Psychopharmacology 186(1):122-132, Berl, 2006; Carvalho, M. C., et al., Braz. Med. Biol. Res. 38(12):1857-66, 2005; and Langen, B., et al., J. Pharmacol. Exp. Ther. 314:717-724, 2005. Alprazolam, a known anxiety drug, was also included in the study. Sixty male, 6-10 week old experimentally naïve rats obtained from the Charles River laboratories were divided into six groups of ten animals each. All animals were maintained in compliance with the standards of the National Research Council and were fed certified rodent diet (Teklad, Madison, Wis.) and water ad libitum. The animals were housed in a dedicated study room with 12 hour light/12 hour dark at RT 18 to 26° C. and 30-70% humidity. Study animals were acclimated to their housing for at least 5 days prior to the first day of dosing. Routes of administration included intracerebroventricular (ICV), intraperitoneal (IP), or intramuscular (IM).
For the anxiolytic study, all groups were dosed by injection with formulations that contained the appropriate API in 0.9% saline solution. Alprazolam was an oral solution dosage form and diluted to the desired concentration in 0.9% saline for the anxiolytic study, Alprazolam Intensol™ Oral Solution (Concentrate) 1 mg/ml (each ml contains 1 mg Alprazolam).
The dosing preparations were administered once to each rat as a bolus. In the ICV administration group, test doses were administered into the lateral ventricle through a port in the already implanted ICV cannula. Testing was conducted 20 minutes after ICV and 30 minutes after IM and IP. The animals were tested for 15 minutes on the maze immediately following transport from the home cage.
The elevated plus maze consisted of a platform with 4 arms, two open and two closed (50×10×50 cm enclosed with an open roof). Rats were tested two at a time and placed by hand in the center of the platform of two separate mazes, at the crossroad of the 4 arms, facing one of the open arms. After fifteen minutes, the first rat was left for a few seconds until the second rat's fifteen minutes was completed. The rats were monitored remotely.
Prior to each rat's test, the plus-maze surfaces and closed sides were cleaned. Rats were handled by gloved hands. The time from removal from the home cage to start of testing was less than 15 seconds. Rats were gently removed from the home cage and placed onto the center square between the open and closed arms, and facing the opposite open arm. The rats were facing away from the experimenter. The experimenter moved away from the maze to an area not visible to the rat(s) and viewed the rat(s) via television monitor. At the end of the test the recorder was stopped and the rat(s) removed from the maze.
The rats were evaluated for time spent in open arm exploration (Open Time), time spent in closed arm exploration (Closed Time) and scored for anxiety according to the percent of time spent in open arm exploration ([time spent in open arms/time spent in open arms+time spent in closed arms×100]) (Open Time %); the absolute time spent in open arm exploration; and the percent of open arm entries ([number of open arm entries/number of open arm entries+number of closed arm entries]×100). The number of total arm entries was used as a measure of overall locomotor activity. The scores were compared to the vehicle controls and to the baseline using one-way ANOVA followed by the appropriate post-hoc test (Bonferroni/Dunnets) and a p<0.05 was considered to be statistically significant.

Setting [8] is: IP route, tested 30 minutes after dosing.
Where [9] appears, read: ICV route, tested 20 minutes after dosing.
[10] abbreviates: IM route, tested 30 minutes after dosing.

*1 amine or outer side, *2 acyl side, *3 side chain or, on linkers, in order; H or OH if unused. Where a SMILES comes first, the peptide text is derived from it. Bridges are numbered along the chain shown (N, C = ends). X1 = O=C(CCC[*:2])[*:1]

Experimental for in vivo: In this Example, eight groups of rabbits were dosed with the formulations presented in Table 34; group 1 received intramuscular (IM) carbetocin injection at 30 μg dose, while the remaining 7 groups received the 60 μg doses of intranasal (IN) carbetocin nasal spray formulations.
Briefly, in this rabbit PK study 3, Group 1 represents a control intramuscular injection; Group 2 represents a formulation used for our first human clinical study. […] In context with formulation #5, the design of this experiment is intended to further confirm the effect of CMC-LV on BA.
For this experiment, 25 ml of each intranasal (IN) formulation was prepared. All IN formulations were stored in 3×1 ml aliquots in 1cc amber glass bottles. Also, 400 ml of the intramuscular (IM) formulation was prepared and stored in 3×3 mL aliquots in 3 cc clear glass bottles. All formulations were stored at 2-8° C.

For orientation: Cmax means the maximum level reached in the sampled fluid or tissue. In general, half-life refers to the time needed for the level to fall by half in the phase considered. A lower half-life goes with fast loss. What is called bioavailability is the share of a dose that reaches the circulation, judged against a reference dose that is usually intravenous. The low end stands for little systemic uptake, the high end for much systemic uptake. As usually defined, the AUC(0-t) is the area under the concentration-time curve up to a stated or last time point. Read a high AUC(0-t) as more exposure. By Tmax is commonly meant the time from dosing to the highest level. With `CC[C@H](C)[C@@H]1NC(=O)[C@H](Cc2ccc(OC)cc2)NC(=O)CCCSC[C@@H](C(=O)N2CCC[C@H]2C(=O)N[C@@H](CC(C)C)C(=O)NCC(N)=O)NC(=O)[C@H](CC(N)=O)NC(=O)[C@H](CCC(N)=O)NC1=O` [carbetocin, 1-butanoic acid-2-(O-methyl-L-tyrosine)-1-carbaoxytocin] (Y(Me)IQNCPLG-NH2; linker N-5 via X1 (inferred)), the Cmax in “clinical [1]” (150 ug) came out at 0.32 ng/mL; in “clinical [1]” (300 ug), 0.43 ng/mL; in “clinical [1]” (500 ug), 0.74 ng/mL; in the data set “clinical [3]” (150 ug), 0.222 ng/mL; in the data set “clinical [3]” (250 ug) it was 0.377 ng/mL; in “clinical [3]” (400 ug), 0.608 ng/mL. Also, the half-life in the data set “clinical [1]” (150 ug) is 33 min; in the data set “clinical [1]” (300 ug) it was 46 min; in the data set “clinical [1]” (500 ug) it was 42 min. Besides, the bioavailability worked out at 6% in “clinical [1]” (im, Bioavailability); 7% in the data set “clinical [3]” (150 ug); 6% in the data set “clinical [3]” (250 ug); 7% in the data set “clinical [3]” (400 ug). The AUC(0-t) in the data set “clinical [1]” (150 ug) is 0.2 ng·h/mL; in the data set “clinical [1]” (300 ug) it was 0.25 ng·h/mL; in “clinical [1]” (500 ug), 0.717 ng·h/mL; in “clinical [3]” (250 ug), 0.302 ng·h/mL; in “clinical [3]” (400 ug) it was 0.542 ng·h/mL. In addition, the Tmax in the data set “clinical [1]” (300 ug) is 10 min; in the data set “clinical [1]” (500 ug), 18.6 min; in “clinical [3]” (150 ug), 15 min; in the data set “clinical [3]” (250 ug) it was 18 min; in “clinical [3]” (400 ug) it was 13 min. Moreover, in data set [2], the AUClast was 13697 (121) min*pg/ml. Further, the “half-life relative to that of oxytocin” value in data set [4] is reported as 4-10 times. The molecule further showed a F rel in the data set “in vivo” of about 9%.

On to Triton, for which, in data set [5] (T = 0), the “TER T = 0” value is reported as 504.4 ohm × cm^2. For the same molecule, the “TER T = 60 min” value in data set [5] (T = 60 min) came out at 0.2 ohm × cm^2. The molecule further displayed an MTT % in [6] of 1.4%. For the same molecule, in data set [7] (apical), the “Apical LDII %” value is 100.0%. The “Basolateral LDH %” value in data set [7] (basolateral) stood at 100.0%.

`Cc1nnc2n1-c1ccc(Cl)cc1C(c1ccccc1)=NC2` [Alprazolam]: in the data set on rats (setting [8]), the “Closed Time” value came to 116.55, the “Open Time” value is given as 46.07 and the “Open Time (%)” value came to 27.9%.

As for `CC[C@H](C)[C@@H]1NC(=O)[C@H](Cc2ccc(O)cc2)NC(=O)[C@@H](N)CSSC[C@@H](C(=O)N2CCC[C@H]2C(=O)N[C@@H](CC(C)C)C(=O)NCC(N)=O)NC(=O)[C@H](CC(N)=O)NC(=O)[C@H](CCC(N)=O)NC1=O` [Oxytocin], in the data set on rats (setting [9]), the “Closed Time” value stood at 158.42, the “Open Time” value is given as 17.89 and the “Open Time (%)” value was found to be 11.3%. Besides, in the data set on rats (setting [10]), the “Closed Time” value is listed as 159.47, the “Open Time” value is 14.54 and the “Open Time (%)” value turned out to be 8.6%.
